Source: ChEMBL document CHEMBL1201862, “PubChem BioAssay data set” (2004)
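Values below derive from 48-hour exposures of cells grown in 96-well plates, with endpoints linearly interpolated between the two concentrations bracketing the appropriate inhibition level. Here, GI50 denotes the concentration required for 50% inhibition of growth.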 The source made the active and inactive calls. No stated cut-off is given here; in the data, active = GI50 up to about 1.1 µM and inactive = higher.

What was measured:
Experiment in all cases: inhibition of tumour cell growth, NCI panel, 48 h
BT-549 = system: BT-549
CCRF-CEM = system: CCRF-CEM
COLO 205 = system: COLO 205
DU-145 = system: DU-145
HCT-15 = system: HCT-15
HT-29 = system: HT-29
MDA-MB-435 = system: MDA-MB-435
NCI-H226 = system: NCI-H226
OVCAR-4 = system: OVCAR-4
OVCAR-8 = system: OVCAR-8
SF-295 = system: SF-295
SK-MEL-5 = system: SK-MEL-5
SNB-19 = system: SNB-19
SNB-75 = system: SNB-75
SR = system: SR
U-251 = system: U-251
UACC-257 = system: UACC-257
UACC-62 = system: UACC-62
LOX IMVI = system: LOX IMVI

| SMILES | GI50 (BT-549) | GI50 (CCRF-CEM) | GI50 (COLO 205) | GI50 (DU-145) | GI50 (HCT-15) | GI50 (HT-29) | GI50 (MDA-MB-435) | GI50 (NCI-H226) | GI50 (OVCAR-4) | GI50 (OVCAR-8) | GI50 (SF-295) | GI50 (SK-MEL-5) | GI50 (SNB-19) | GI50 (SNB-75) | GI50 (SR) | GI50 (U-251) | GI50 (UACC-257) | GI50 (UACC-62) | GI50 (LOX IMVI) |
| --- | --- | --- | --- | --- | --- | --- | --- | --- | --- | --- | --- | --- | --- | --- | --- | --- | --- | --- | --- |
| Cc1cc(C)c2c(O)c(S(=O)(=O)c3ccc(Cl)cc3)c(=O)oc2c1 | 67.9 µM (inactive) | 42.5 µM (inactive) | > 100 µM (inactive) | 84.9 µM (inactive) | 49.7 µM | 95.3 µM (inactive) | 51.8 µM (inactive) | 24.3 µM (inactive) | 41.7 µM (inactive) | 29.2 µM (inactive) | 36.5 µM (inactive) | 60 µM (inactive) | 52.1 µM (inactive) | 45 µM (inactive) | 82.4 µM (inactive) | 37.7 µM (inactive) | > 100 µM (inactive) | 58.6 µM (inactive) |  |
| CCN(CC)c1ccc2cc(-c3nnc(-c4ccccc4O)o3)c(=O)oc2c1 | 5.75 µM (inactive) | 2.37 µM (inactive) | 7.66 µM (inactive) | 10.3 µM (inactive) | 5.75 µM | 11.7 µM (inactive) | 12.9 µM (inactive) |  | 6.35 µM (inactive) | 2.4 µM (inactive) | 11.1 µM (inactive) | 6.93 µM (inactive) | 9.68 µM (inactive) |  | 5.87 µM (inactive) | 7.71 µM (inactive) | 14.3 µM (inactive) | 10.6 µM (inactive) | 6.73 µM (inactive) |
| COc1cc2c(c(O)c1OC)C(O)C1CCC(=O)N1C2c1cccc2ccccc12 (centres undefined) | > 100 µM (inactive) | 81.7 µM (inactive) | > 100 µM (inactive) | > 100 µM (inactive) | > 100 µM | > 100 µM (inactive) | 51.4 µM (inactive) | > 100 µM (inactive) | 65.6 µM (inactive) | > 100 µM (inactive) | 99.8 µM (inactive) | > 100 µM (inactive) | > 100 µM (inactive) | 27 µM (inactive) | > 100 µM (inactive) | > 100 µM (inactive) | > 100 µM (inactive) | > 100 µM (inactive) |  |
| Cc1cn([C@@H]2C[C@@H]2CO)c(=O)[nH]c1=O | > 100 µM (inactive) | > 100 µM (inactive) | > 100 µM (inactive) | > 100 µM (inactive) | > 100 µM | > 100 µM (inactive) | > 100 µM (inactive) | > 100 µM (inactive) | > 100 µM (inactive) | > 100 µM (inactive) |  | > 100 µM (inactive) | > 100 µM (inactive) | > 100 µM (inactive) | > 100 µM (inactive) | > 100 µM (inactive) | > 100 µM (inactive) | > 100 µM (inactive) | > 100 µM (inactive) |
| CCOc1ccc2nc(NC(NC(=O)c3cccnc3)(C(F)(F)F)C(F)(F)F)sc2c1 | 30.2 µM (inactive) | 17.1 µM (inactive) | 34.1 µM (inactive) | 35.7 µM (inactive) | 26 µM | 14.1 µM (inactive) | 22.2 µM (inactive) | 44 µM (inactive) | 24 µM (inactive) | 26.7 µM (inactive) | 42 µM (inactive) | 20.5 µM (inactive) | 51.9 µM (inactive) | 23.3 µM (inactive) | 24.9 µM (inactive) | 42.5 µM (inactive) | 25.5 µM (inactive) | 25.6 µM (inactive) |  |
| Cc1ccc(CC(=O)Nc2ccc(NC(=O)CNC(=O)/C=C/c3ccc(-c4ccccc4)cc3)cc2C(=O)c2ccccc2)cc1 | 10.9 µM (inactive) | 4.79 µM (inactive) | 6.93 µM (inactive) | 2.49 µM (inactive) | 3.69 µM | 1.58 µM (inactive) | 3.66 µM (inactive) | 2.79 µM (inactive) |  | 1.59 µM (inactive) | 2.22 µM (inactive) | 1.69 µM (inactive) | 4.57 µM (inactive) |  | 1.84 µM (inactive) | 2.77 µM (inactive) | 6.32 µM (inactive) | 13.1 µM (inactive) | 3.69 µM (inactive) |
| NC(=S)Nc1nc(=S)[nH]c2[nH]ccc12 | 93.8 µM (inactive) | 24.2 µM (inactive) | 82.4 µM (inactive) | > 100 µM (inactive) | 41.7 µM | 99.5 µM (inactive) | 30.9 µM (inactive) | > 100 µM (inactive) |  | 49.3 µM (inactive) | 65.5 µM (inactive) | 15.3 µM (inactive) | > 100 µM (inactive) | < 0.01 µM (active) | 29.4 µM (inactive) | 93.1 µM (inactive) | > 100 µM (inactive) | 91 µM (inactive) | 27.7 µM (inactive) |
| O=c1cnn(C2OC(C(O)CO)C(O)C2O)c(=O)[nH]1 (centres undefined) | > 100 µM (inactive) | > 100 µM (inactive) | > 100 µM (inactive) | > 100 µM (inactive) | > 100 µM | > 100 µM (inactive) | > 100 µM (inactive) | > 100 µM (inactive) | > 100 µM (inactive) | > 100 µM (inactive) |  | > 100 µM (inactive) | > 100 µM (inactive) | > 100 µM (inactive) | > 100 µM (inactive) | > 100 µM (inactive) | > 100 µM (inactive) | > 100 µM (inactive) | > 100 µM (inactive) |
| CC(O)C1(CNc2cc(Cl)nc(N)n2)CCC1 (centres undefined) | > 100 µM (inactive) | > 100 µM (inactive) |  | > 100 µM (inactive) | > 100 µM | > 100 µM (inactive) | > 100 µM (inactive) | > 100 µM (inactive) | > 100 µM (inactive) | > 100 µM (inactive) | > 100 µM (inactive) | 70.1 µM (inactive) | > 100 µM (inactive) |  | > 100 µM (inactive) | > 100 µM (inactive) | 37.8 µM (inactive) | 89.9 µM (inactive) | > 100 µM (inactive) |
| O=C(Nc1ccc(F)cc1)c1cc2ccc(O)cc2o/c1=N\c1cccc(F)c1 | 30.6 µM (inactive) | 15.2 µM (inactive) | > 100 µM (inactive) | 28.9 µM (inactive) | 27.5 µM | > 100 µM (inactive) | 31.8 µM (inactive) |  | 26 µM (inactive) | 18.4 µM (inactive) | 43.9 µM (inactive) | 16.1 µM (inactive) |  |  | 33.3 µM (inactive) | 28.7 µM (inactive) | 33.5 µM (inactive) | 42.8 µM (inactive) | 25.4 µM (inactive) |
| CCSC1=CC(=O)c2nc3ccccc3c3ccnc1c23 | 12.9 µM (inactive) | 2.44 µM (inactive) | 8.15 µM (inactive) | 10.8 µM (inactive) | 2.31 µM | 3.82 µM (inactive) | 1.77 µM (inactive) | 10.6 µM (inactive) | 2.69 µM (inactive) | 2.57 µM (inactive) | 13.8 µM (inactive) |  | 42.2 µM (inactive) | 6.43 µM (inactive) | 2.7 µM (inactive) | 3.33 µM (inactive) | 1.95 µM (inactive) | 2.05 µM (inactive) | 4.51 µM (inactive) |
| CCOC(=O)NC(Nc1ccc([N+](=O)[O-])cc1)(C(F)(F)F)C(F)(F)F | 96.2 µM (inactive) | > 100 µM (inactive) | > 100 µM (inactive) | > 100 µM (inactive) | 70.6 µM | > 100 µM (inactive) | 21.3 µM (inactive) | 40.1 µM (inactive) |  | > 100 µM (inactive) | > 100 µM (inactive) | 81.3 µM (inactive) | > 100 µM (inactive) | > 100 µM (inactive) | 34.2 µM (inactive) | 85.9 µM (inactive) | 70.3 µM (inactive) | 95.1 µM (inactive) | 75.3 µM (inactive) |
| CC(=O)NC1C(OCc2ccccc2)OC(CO)C(O)C1OCC(=O)NC(C)C(=O)NC(CCC(=O)Nc1ccc2c(c1)CN1C(=O)c3ccccc3C1=N2)C(N)=O (centres undefined) | > 100 µM (inactive) | > 100 µM (inactive) | > 100 µM (inactive) | > 100 µM (inactive) | > 100 µM | > 100 µM (inactive) | > 100 µM (inactive) |  | > 100 µM (inactive) | > 100 µM (inactive) | > 100 µM (inactive) | > 100 µM (inactive) | > 100 µM (inactive) | > 100 µM (inactive) | > 100 µM (inactive) | > 100 µM (inactive) | > 100 µM (inactive) | > 100 µM (inactive) | > 100 µM (inactive) |
| COc1ccc(C2(c3ccc(OC)cc3)OC(=O)c3cccc4cccc2c34)cc1 | 11.4 µM (inactive) | 3.18 µM (inactive) | 2.81 µM (inactive) | > 100 µM (inactive) | 4.15 µM | 2.4 µM (inactive) | 2.69 µM (inactive) | 27.6 µM (inactive) | 4.85 µM (inactive) | 15.7 µM (inactive) | 3.97 µM (inactive) | 5.25 µM (inactive) | 94 µM (inactive) |  | 2.54 µM (inactive) | 4.38 µM (inactive) | > 100 µM (inactive) | 5.28 µM (inactive) | 8.89 µM (inactive) |
| COC(=O)c1ccc(/C=N/c2ccc(S(N)(=O)=O)cc2)cc1 | > 100 µM (inactive) | 30.8 µM (inactive) | > 100 µM (inactive) | > 100 µM (inactive) | > 100 µM | > 100 µM (inactive) | 35.4 µM (inactive) | > 100 µM (inactive) | 97.9 µM (inactive) | 89.1 µM (inactive) | > 100 µM (inactive) | > 100 µM (inactive) | > 100 µM (inactive) | 58.9 µM (inactive) | 43 µM (inactive) | 67 µM (inactive) | 14.2 µM (inactive) | 60.3 µM (inactive) | 33.5 µM (inactive) |
| CCOC(=O)Nc1cc2c(c(N)n1)N=C(c1ccccc1)CN2 | < 0.01 µM (active) | < 0.01 µM (active) | < 0.01 µM (active) | < 0.01 µM (active) | < 0.01 µM | < 0.01 µM (active) | < 0.01 µM (active) |  | 28.1 µM (inactive) | < 0.01 µM (active) | < 0.01 µM (active) | < 0.01 µM (active) | < 0.01 µM (active) | < 0.01 µM (active) | < 0.01 µM (active) | < 0.01 µM (active) | 12.8 µM (inactive) | < 0.0001 µM (active) | < 0.01 µM (active) |
